Reference: publication PMC4155405 (Nature communications, 2014)

Experiments:
[1] = tested on: MDCK cells; details: cited from earlier work
[2] = tested on: Wuhan95 virus; assay type: cell-based
[3] = tested on: Jurkat cells; details: cited from earlier work

Structure (SMILES)	cytotoxicity in MDCK cells [1]	reversal of ribavirin inhibition of Wuhan95 replication by guanosine [2]	ATP relative to un-treated control cells [3] [%]	GTP relative to un-treated control cells [3] [%]
NC(=O)c1nc(F)c[nH]c1=O [favipiravir]	No cytotoxicity	–	–	–
Nc1nc2c(ncn2[C@@H]2O[C@H](CO)[C@@H](O)[C@H]2O)c(=O)[nH]1 [guanosine]	–	can restore Wuhan95 replication	40	600
